Data taken from ChEMBL document CHEMBL1151620, “Rollinone, a new cytotoxic acetogenin from Rollinia papilionella” (1984).

Tests used:
P388 [1] = assay: Cytotoxicity against mouse P388 cells; type: functional
P388 [2] = assay: In vivo antitumor activity against mouse P388 lymphocytic leukemia in mouse at 1.4 mg/kg; type: functional

Structure (SMILES): CCCCCCCCCCC(O)C1CCC(C2CCC(C(O)C(=O)CCCCCCCCCCCC3CC(C)OC3=O)O2)O1 (configuration not stated) [ROLLINONE]
- ED50 (P388 [1]): <1 ×10⁻⁵ ug/ml
- T/C (P388 [2]): 147%
